Test results from patent publication US6710060B2, “4-hydroxypiperidine derivatives having antiarrhythmic activity” (Mochida Pharmaceutical Co., Ltd., priority 1999, dated 2004).
Where a name gives a salt, the structure may show the parent alone.

Compound | melting point
CCCCOc1ccc(N(C)CCC2(O)CCN(Cc3ccc4c(c3)OCO4)CC2)cc1 (as salt: hydrochloride) [Example 162, 4-[2-[N-(4-n-butoxyphenyl)-N-methylamino]ethyl]-1-(3,4-methylenedioxyphenylmethyl)piperidin-4-ol dihydrochloride] | 211 °C (dec.)
CCCCOc1ccc(N(C)CCC2(O)CCN(CCc3ccc(F)cc3)CC2)cc1 (as salt: hydrochloride) [Example 176, 4-[2-[N-(4-n-butoxyphenyl)-N-methylamino]ethyl]-1-[2-(4-fluorophenyl)ethyl]piperidin-4-ol dihydrochloride] | 207 °C (dec.)
CCCCOc1ccc(N(C)CCC2(O)CCN(Cc3ccc(F)cc3)CC2)cc1 (as salt: hydrochloride) [Example 177, 4-[2-[N-(4-n-butoxyphenyl)-N-methylamino]ethyl]-1(4-fluorophenylmethyl)piperidin-4-ol dihydrochloride] | 209 °C (dec.)
CCCCOc1ccc(N(C)CCC2(O)CCN(CCc3ccc(F)cc3F)CC2)cc1 (as salt: hydrochloride) [Example 183, 4-[2-[N-(4-n-butoxyphenyl)-N-methylamino]ethyl]-1-[2-(2,4-difluorophenyl)ethyl]piperidin-4-ol dihydrochloride] | 209 °C (dec.)
CCCCOc1ccc(N(C)CC(O)C2(O)CCN(CCc3ccc(F)cc3)CC2)cc1 (stereo not drawn) (as salt: hydrochloride) [Example 196, 4-[2-[N-(4-n-butoxyphenyl)-N-methylamino]-1-hydroxyethyl]-1-[2-(4-fluorophenyl)ethyl]piperidin-4-ol dihydrochloride] | 191.2 to 198.7 °C
CCCCOc1ccc(N(C)CCC2(O)CCN(CC(O)c3ccc(F)cc3)CC2)cc1 (stereo not drawn) (as salt: hydrochloride) [Example 198, 4-[2-[N-(4-n-butoxyphenyl)-N-methylamino]ethyl]-1-[2-(4-fluorophenyl)-2-hydroxyethyl]piperidin-4-ol dihydrochloride] | 174.9 to 184.5 °C
CCCCOc1ccc(N(C)CCC2(OC)CCN(Cc3ccccc3)CC2)cc1 (as salt: hydrochloride) [Example 201, 1-benzyl-4-methoxy-4-[2-[N-(4-n-butoxyphenyl)-N-methylamino]ethyl]piperidine dihydrochloride] | 215 °C (dec.)
CC(C)Oc1ccc(N(C)CCC2(O)CCN(Cc3ccc(Br)cc3)CC2)cc1 (as salt: hydrochloride) [Example 220, 1-(4-bromophenylmethyl)-4-[2-[N-methyl-N-(4-isopropoxyphenyl)amino]ethyl]piperidin-4-ol dihydrochloride] | 224.4 to 226.2 °C
CC(C)Oc1ccc(N(C)CCC2(O)CCN(Cc3ccc(C(F)(F)F)cc3)CC2)cc1 (as salt: hydrochloride) [Example 221, 4-[2-[N-methyl-N-(4-isopropoxyphenyl)amino]ethyl]-1-[4-(trifluoromethyl)phenylmethyl]piperidin-4-ol dihydrochloride] | 241.2 to 242.6 °C
CC(C)Oc1ccc(N(C)CCC2(O)CCN(Cc3ccc(C#N)cc3)CC2)cc1 (as salt: hydrochloride) [Example 226, 1-(4-cyanophenylmethyl)-4-[2-[N-methyl-N-(4-isopropoxyphenyl)amino]ethyl]piperidin-4-ol dihydrochloride] | 220.8 to 222.2 °C
CC(C)Oc1ccc(N(C)CCC2(O)CCN(Cc3ccc(OC(F)(F)F)cc3)CC2)cc1 (as salt: hydrochloride) [Example 236, 4-[2-[N-methyl-N-(4-isopropoxyphenyl)amino]ethyl]-1-(4-trifluoromethoxyphenylmethyl)piperidin-4-ol dihydrochloride] | 233.2 to 234.9 °C
CC(C)Oc1ccc(N(C)CCC2(O)CCN(Cc3ccc(Br)cc3F)CC2)cc1 (as salt: hydrochloride) [Example 240, 1-(4-bromo-2-fluorophenylmethyl)-4-[2-[N-methyl-N-(4-isopropoxyphenyl)amino]ethyl]piperidin-4-ol dihydrochloride] | 228.3 to 229.1 °C
CC(C)Oc1ccc(N(C)CCC2(O)CCN(Cc3cccs3)CC2)cc1 (as salt: hydrochloride) [Example 254, 4-[2-[N-methyl-N-(4-isopropoxyphenyl)amino]ethyl]-1(2-thienylmethyl)piperidin-4-ol dihydrochloride] | 216.5 to 217.5 °C
CCCCCOc1ccc(N(C)CCC2(O)CCN(Cc3ccccc3)CC2)cc1 [Example 15, 1-Benzyl-4-[2-[N-methyl-N-(4-n-pentyloxyphenyl)-amino]ethyl]piperidin-4-ol] | 58.5 to 60.3 °C
CC(C)COc1ccc(N(C)CCC2(O)CCN(Cc3ccccc3)CC2)cc1 [Example 16, 1-Benzyl-4-[2-[N-(4-isobutoxyphenyl)-N-methylamino]-ethyl]piperidin-4-ol] | 50.6 to 52.5 °C
CN(CCC1(O)CCN(Cc2ccccc2)CC1)c1ccc(OC2CCC2)cc1 [Example 17, 1-Benzyl-4-[2-[N-(4-cyclobutoxyphenyl)-N-methylamino]-ethyl]piperidin-4-ol] | 68.6 to 69.8 °C
CCCCOc1ccc(N(C)CCC2(O)CCN(Cc3ccc(Cl)cc3)CC2)cc1 [Example 20, 4-[2-[N-(4-n-butoxyphenyl)-N-methylamino]ethyl]-1-(4-chlorophenylmethyl)piperidin-4-ol] | 67.7 to 68.3 °C
CCCCOc1ccc(N(C)CCC2(O)CCN(Cc3ccc(C(F)(F)F)cc3)CC2)cc1 [Example 21, 4-[2-[N-(4-n-butoxyphenyl)-N-methylamino]ethyl]-1-[4-(trifluoromethyl)phenylmethyl]piperidin-4-ol] | 77.4 to 78.2 °C
CCCCOc1ccc(N(C)CCC2(O)CCN(Cc3ccc(C#N)cc3)CC2)cc1 [Example 22, 4-[2-[N-(4-n-butoxyphenyl)-N-methylamino]ethyl]-1(4-cyanophenylmethyl)piperidin-4-ol] | 83.5 to 85.5 °C
CCCCOc1ccc(N(C)CCC2(O)CCN(Cc3ccc(C(=O)OC)cc3)CC2)cc1 [Example 23, 4-[2-[N-(4-n-butoxyphenyl)-N-methylamino]ethyl]-1-(4-methoxycarbonylphenylmethyl)piperidin-4-ol] | 82.5 to 82.8 °C
CCCCOc1ccc(N(C)CCC2(O)CCN(Cc3ccc(N(C)C)cc3)CC2)cc1 [Example 24, 4-[2-[N-(4-n-butoxyphenyl)-N-methylamino]ethyl]-1-[4-(dimethylamino)phenylmethyl]piperidin-4-ol] | 71.3 to 73 °C
CCCCOc1ccc(N(C)CCC2(O)CCN(Cc3cccc(F)c3)CC2)cc1 [Example 29, 4-[2-[N-(4-n-butoxyphenyl)-N-methylamino]ethyl]-1-(3-fluorophenylmethyl)piperidin-4-ol] | 46.7 to 47.2 °C
CCCCOc1ccc(N(C)CCC2(O)CCN(Cc3ccc(F)c(F)c3)CC2)cc1 [Example 30, 4-[2-[N-(4-n-butoxyphenyl)-N-methylamino]ethyl]-1-(3,4-difluorophenylmethyl)piperidin-4-ol] | 49.8 to 50.5 °C
CCCCOc1ccc(N(C)CCC2(O)CCN(Cc3ccc(C)cc3)CC2)cc1 [Example 31, 4-[2-[N-(4-n-butoxyphenyl)-N-methylamino]ethyl]-1(4-methylphenylmethyl)piperidin-4-ol] | 73.3 to 75 °C
